Reference: ChEMBL document CHEMBL5233212, “Recent advance in the development of novel, selective and potent FGFR inhibitors” (Eur J Med Chem, 2020)

What was measured:
[1] = biological target: Tyrosine-protein kinase BTK (Homo sapiens, UniProt Q06187); assay: Inhibition of human BTK (382 to 659 residues) expressed in baculovirus infected Sf21 insect cells preincubated for 15 mins followed by ATP addition and measured upto 180 mins by microfluidic capillary electrophoresis analysis
NCI-H1581 = assay: Antiproliferative activity against human NCI-H1581 cells assessed as inhibition of cell growth incubated for 72 hrs by MTT colorimetric assay; type: functional, cell-based; conditions: NCI-H1581, 72 h
KG-1 = assay: Antiproliferative activity against human KG-1 cells assessed as inhibition of cell growth incubated for 72 hrs by MTT colorimetric assay; type: functional, cell-based; conditions: KG-1, 72 h
[2] = Antiproliferative activity against human KATO III stomach cancer cell line assessed as inhibition of cell growth incubated for 72 hrs by MTT colorimetric assay; type: functional, cell-based
SNU-16 = assay: Antiproliferative activity against human SNU-16 cells assessed as inhibition of cell growth incubated for 72 hrs by MTT colorimetric assay; type: functional, cell-based; conditions: SNU-16, 72 h
RT-112 = assay: Antiproliferative activity against human RT-112 cells assessed as inhibition of cell growth incubated for 72 hrs by MTT colorimetric assay; type: functional, cell-based; conditions: RT-112, 72 h
[3] = biological target: Fibroblast growth factor receptor (Homo sapiens, UniProt P22607+P11362+P22455+P21802); assay: Inhibition of FGFR (unknown origin) using […] incubated for 60 mins by Kinase-Glo Plus luminescence assay; type: protein assay
[4] = biological target: T1, Fibroblast growth factor receptor 1 (Homo sapiens, UniProt P11362); assay: Inhibition of FGFR1 (unknown origin) in presence of ATP by caliper mobility shift assay
Target sequence in this assay (P11362 whole entry): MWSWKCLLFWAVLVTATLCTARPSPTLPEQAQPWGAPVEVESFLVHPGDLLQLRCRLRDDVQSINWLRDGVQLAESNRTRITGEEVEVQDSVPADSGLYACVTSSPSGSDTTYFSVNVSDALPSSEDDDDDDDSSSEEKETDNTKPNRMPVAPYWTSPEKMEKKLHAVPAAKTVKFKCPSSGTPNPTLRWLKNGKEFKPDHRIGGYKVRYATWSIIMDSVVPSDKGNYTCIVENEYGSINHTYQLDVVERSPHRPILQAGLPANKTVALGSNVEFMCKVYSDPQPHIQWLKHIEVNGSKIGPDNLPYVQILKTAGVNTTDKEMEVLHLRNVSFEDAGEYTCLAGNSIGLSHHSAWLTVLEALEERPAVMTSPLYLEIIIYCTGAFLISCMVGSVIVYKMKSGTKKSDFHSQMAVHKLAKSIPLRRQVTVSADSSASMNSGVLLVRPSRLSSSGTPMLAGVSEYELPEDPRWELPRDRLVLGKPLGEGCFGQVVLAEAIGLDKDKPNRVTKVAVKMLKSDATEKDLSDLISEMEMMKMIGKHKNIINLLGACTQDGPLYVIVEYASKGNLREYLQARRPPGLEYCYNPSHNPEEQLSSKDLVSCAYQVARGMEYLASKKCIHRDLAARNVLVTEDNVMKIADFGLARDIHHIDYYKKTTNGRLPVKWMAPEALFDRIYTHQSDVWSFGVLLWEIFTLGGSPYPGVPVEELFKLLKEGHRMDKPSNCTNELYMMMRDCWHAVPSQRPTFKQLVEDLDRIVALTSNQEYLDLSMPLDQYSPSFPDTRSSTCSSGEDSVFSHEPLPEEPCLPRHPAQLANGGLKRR

[5] = biological target: T1, Fibroblast growth factor receptor 1; assay: Inhibition of human recombinant FGFR1 using Poly (Glu, Tyr)4:1 as substrate at 10 nM incubated for 90 mins in presence of ATP by ELISA based spectrophotometer assay
Target sequence in this assay (P11362 22-822 limits assumed): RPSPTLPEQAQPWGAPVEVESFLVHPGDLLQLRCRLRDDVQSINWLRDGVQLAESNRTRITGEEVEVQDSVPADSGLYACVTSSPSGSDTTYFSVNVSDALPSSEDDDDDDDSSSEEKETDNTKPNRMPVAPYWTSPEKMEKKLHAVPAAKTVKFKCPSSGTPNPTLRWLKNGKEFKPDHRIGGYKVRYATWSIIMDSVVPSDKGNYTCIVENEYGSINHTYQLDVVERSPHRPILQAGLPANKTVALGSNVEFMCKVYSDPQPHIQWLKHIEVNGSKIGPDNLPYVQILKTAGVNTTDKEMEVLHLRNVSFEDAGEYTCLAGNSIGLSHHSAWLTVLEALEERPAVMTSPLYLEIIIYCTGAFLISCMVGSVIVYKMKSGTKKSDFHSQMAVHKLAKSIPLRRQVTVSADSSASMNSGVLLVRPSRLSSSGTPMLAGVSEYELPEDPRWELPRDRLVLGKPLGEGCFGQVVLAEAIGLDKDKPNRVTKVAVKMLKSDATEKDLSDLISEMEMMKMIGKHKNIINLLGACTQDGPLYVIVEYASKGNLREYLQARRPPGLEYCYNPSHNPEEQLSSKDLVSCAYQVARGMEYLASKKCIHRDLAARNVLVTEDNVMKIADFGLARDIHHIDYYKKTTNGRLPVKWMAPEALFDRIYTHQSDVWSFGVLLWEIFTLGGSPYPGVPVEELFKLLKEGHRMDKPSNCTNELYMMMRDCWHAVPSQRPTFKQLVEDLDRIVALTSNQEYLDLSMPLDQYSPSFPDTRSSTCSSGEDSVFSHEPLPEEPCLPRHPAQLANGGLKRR

Chain of Tyrosine-protein kinase BTK (Q06187 whole entry, the tested form may be a part): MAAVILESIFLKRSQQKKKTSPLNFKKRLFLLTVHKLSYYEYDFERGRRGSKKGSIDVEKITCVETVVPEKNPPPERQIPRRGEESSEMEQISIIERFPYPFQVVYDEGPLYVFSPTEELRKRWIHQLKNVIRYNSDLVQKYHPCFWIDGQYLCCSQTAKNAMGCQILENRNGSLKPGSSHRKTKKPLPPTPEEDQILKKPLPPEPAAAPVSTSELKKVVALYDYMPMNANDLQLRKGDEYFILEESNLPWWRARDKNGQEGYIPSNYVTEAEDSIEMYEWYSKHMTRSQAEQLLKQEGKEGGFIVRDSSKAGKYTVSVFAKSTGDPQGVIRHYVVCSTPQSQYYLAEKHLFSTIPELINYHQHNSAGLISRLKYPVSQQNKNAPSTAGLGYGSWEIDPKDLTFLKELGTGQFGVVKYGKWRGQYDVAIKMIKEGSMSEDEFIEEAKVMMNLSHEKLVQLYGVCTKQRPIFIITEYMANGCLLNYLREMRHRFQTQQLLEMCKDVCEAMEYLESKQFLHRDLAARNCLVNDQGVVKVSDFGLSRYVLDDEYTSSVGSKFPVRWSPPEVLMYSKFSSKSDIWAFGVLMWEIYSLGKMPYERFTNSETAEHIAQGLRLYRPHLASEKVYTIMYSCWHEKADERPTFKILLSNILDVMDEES

## CNc1ncc2cc(-c3cc(OC)cc(OC)c3Cl)c(=O)n(CCc3ccc(NC(=O)/C(C#N)=C/C(C)(C)N)cc3)c2n1
[1]
  IC50: 0.0005 µM

## Cc1n[nH]c2ccc(-c3cc(N[C@@H](CO)c4ccccc4)cnc3-c3cc(F)ccc3O)cc12
NCI-H1581
  IC50: 0.391 µM
KG-1
  IC50: 0.0145 µM
[2]
  IC50: 0.156 µM
SNU-16
  IC50: 0.0248 µM
RT-112
  IC50: 0.122 µM

## Cc1nc(OCC(=O)N/N=C/c2ccc(Cl)cc2)c2c(C)nn(-c3ccccc3)c2n1
[3]
  IC50: 9.59 µM

## COc1cc(/C=C2\CC/C(=C\c3ccc(OC(=O)C(C)C)c(OC)c3)C2=O)ccc1OC(=O)C(C)C
[4]
  IC50: 2.6 µM

## Cn1cc(-c2cnc3cnn(S(=O)(=O)c4ccccc4)c3n2)cn1
[5]
  inhibition: > 90%

## CCC(=O)Oc1ccc(/C=C2\CC/C(=C\c3ccc(OC(=O)CC)c(OC)c3)C2=O)cc1OC
[4]
  IC50: 3 µM

## O=S(=O)(c1cn(CCF)cn1)n1ncc2ncc(-c3cn[nH]c3)nc21
[5]
  inhibition: 93.3%
